Values of other authors as cited in patent US20120282187A1 (BOEHRINGER INGELHEIM INTERNATIONAL GMBH, priority 2008, published 2012).

System: patients with atrial fibrillation
Settings: sub-cutaneous; cited from earlier work

## CO[C@H]1O[C@H](COS(=O)(=O)O)[C@@H](O[C@@H]2O[C@@H](C(=O)O)[C@@H](O[C@H]3O[C@H](COS(=O)(=O)O)[C@@H](O[C@@H]4O[C@H](C(=O)O)[C@@H](O[C@H]5O[C@H](COS(=O)(=O)O)[C@@H](OC)[C@H](OC)[C@H]5OC)[C@H](OC)[C@H]4OC)[C@H](OS(=O)(=O)O)[C@H]3OS(=O)(=O)O)[C@H](OC)[C@H]2OC)[C@H](OS(=O)(=O)O)[C@H]1OS(=O)(=O)O [idraparinux]
  efficacy compared to warfarin: more effective than warfarin
  risk of bleeding compared to warfarin: substantially higher risk of bleeding
